# Laboratory results from US20010049390A1, “Prevention of pest feed harm on a fibrous product” (priority 2000, published 2001).
# Columns and labels:
# [1] = tested on: middle instar larvae webbing clothes moth (Tineola bisselliella); assay: Test Example 1 / Comparative Example 1: pest feed harm on treated wool muslin, infested after drying; assay type: in vivo; design: key: “+++” for a heavy level of the pest feed harm; “++” for a normal level of the pest feed harm; “+” for a minor level of the pest feed harm; “−” for no visual pest feed harm; conditions: 10 larvae, 7 days of infestation at 25±2° C., repeats 1-5
# From the text: One-tenth (0.1) milliliter of acetone solutions composed of 0.1% w/v and 0.3% w/v of 1-methyl-2-nitro-3-[(3-tetrahydrofuryl)methyl]guanidine (hereinafter referred to as the present compound), respectively, was eye-dropped with a pipette onto wool muslins.
# Each of the resulting wool muslins was then allowed to dry and was placed on the bottom portion of a plastic container.
# Ten (10) middle instar larvae webbing clothes moth (Tineola bisselliella) were then placed, respectively, into the plastic container, and a nylon net was set on the top portion of the plastic container to cover the opening thereof. After 7 days of infestation under 25±2° C., the pest feed harm on the wool muslins were examined. The standards to the pest feed harm were “+++” for a heavy level of the pest feed harm, “++” for a normal level of the pest feed harm, “+” for a minor level of the pest feed harm and “−” for no visual pest feed harm. The tests were repeated 5 times.
# (§1) Further, as a control, a test utilizing a wool muslin to which no composition was applied was similarly conducted. The control was repeated twice.
# One-tenth (0.1) milliliter of acetone solutions composed of 0.1% w/v and 0.3% w/v of (E)-1-ethynyl-2-methyl-pent-2-enyl-(1R)-cis,trans-chrysanthemate (hereinafter referred to as comparative compound 1), respectively, was eye-dropped with a pipette onto wool muslins.
# Ten (10) middle instar larvae webbing clothes moth (Tineola bisselliella) were then placed, respectively, into the plastic container, and a nylon net was set on the top portion of the plastic container to cover the opening thereof. After 7 days of infestation under 25±2° C., the pest feed harm on the wool muslins were examined. The standards to the pest feed harm were “+++” for a heavy level of the pest feed harm, “++” for a normal level of the pest feed harm, “+” for a minor level of the pest feed harm and “−” for no visual pest feed harm. The comparative experiments were repeated 5 times.
# [2] = tested on: middle instar larvae webbing clothes moth (Tineola bisselliella); assay: Test Example 2 / Comparative Example 2: pest feed harm on treated wool muslin preserved for 2 weeks before infestation; assay type: in vivo; design: key: “+++” for a heavy level of the pest feed harm; “++” for a normal level of the pest feed harm; “+” for a minor level of the pest feed harm; “−” for no visual feed harm; conditions: preserved at 25±2° C. for 2 weeks before test, 10 larvae, 7 days of infestation, repeats 1-5
# Method: One-tenth (0.1) milliliter of acetone solutions composed of 0.1% w/v and 0.3% w/v of the present compound, respectively, was eye-dropped with a pipette onto wool muslins.
# Each of the resulting wool muslins was then preserved at 25±2° C. for 2 weeks. After the 2 weeks, each of the wool muslins was placed on the bottom portion of a plastic container.
# Ten (10) middle instar larvae webbing clothes moth (Tineola bisselliella) were then placed, respectively, into the plastic container and a nylon net was set on the top portion of the plastic container to cover the opening thereof. After 7 days of infestation under 25±2° C., the pest feed harm on the wool muslins were examined. The standards to the pest feed harm were “+++” for a heavy level of the pest feed harm, “++” for a normal level of the pest feed harm, “+” for a minor level of the pest feed harm and “−” for no visual feed harm. The tests were repeated 5 times.
# as §1
# One-tenth (0.1) milliliter of acetone solutions composed of 0.1% w/v and 0.3% w/v of Comparative compound 1, respectively, was eye-dropped with a pipette onto wool muslins.
# Ten (10) middle instar larvae webbing clothes moth (Tineola bisselliella) were then placed, respectively, into the plastic container and a nylon net was set on the top portion of the plastic container to cover the opening thereof. After 7 days of infestation under 25±2° C., the pest feed harm on the wool muslins were examined. The standards to the pest feed harm were “+++” for a heavy level of the pest feed harm, “++” for a normal level of the pest feed harm, “+” for a minor level of the pest feed harm and “−” for no visual pest feed harm. The comparative experiments were repeated 5 times.
# [3] = application amount 25 mg/m^2 on wool muslin
# [4] = application amount 75 mg/m^2 on wool muslin
Compound,"Pest feed harm [1, 3]","Pest feed harm [1, 4]","Pest feed harm [2, 3]","Pest feed harm [2, 4]"
"C#CC(OC(=O)C1C(C=C(C)C)C1(C)C)/C(C)=C/CC (mixture of isomers) [Comparative compound 1, (E)-1-ethynyl-2-methyl-pent-2-enyl-(1R)-cis,trans-chrysanthemate]",+ + and +,+ and + +,+ + +,+ + +
"CNC(=N[N+](=O)[O-])NCC1CCOC1 (centres unmarked) [Present compound, 1-methyl-2-nitro-3-[(3-tetrahydrofuryl)methyl]guanidine]",−,−,−,−
